Test results from patent publication US12415939B2, “Nano-adhesive and surface primer compound and use thereof” (The Regents of the University of California, priority 2015, dated 2025).

Assays:
[1] = QCM-D adsorption of zwitterionic molecules; format: physicochemical; conditions: silica
Excerpt: Quartz Crystal Microbalance (QCM): Adsorption of the molecules on different surfaces such as silica, SiO2, (FIGS. 7A-7E) and titania, TiO2, (FIGS. 8A-8E) was also explored by the quartz crystal microbalance (QCM) and confocal fluorescence microscopy after rhodamine staining (FIG. 27A-27B). Quartz crystal microbalance with dissipation (QCM-D): A “static cell” (often called “Open Model”) QCM-D (Q-Sense, Biolin Scientific) was employed to qualitatively show the adsorption of the zwitterionic molecules onto mineral and metal oxide surfaces. 50 μl of 5 mM zwitterionic solution was deposited onto TiO2 and SiO2 surface, respectively, in DI H2O (100 μl) using a static cell via two-step adsorption. […] However, a quantitative discussion regarding the adsorbed mass (frequency shift) and the viscoelastic properties (dissipation) of the adsorbed “soft” layers is challenging because the mass of the zwitterionic molecules cannot be separated from the mass of adsorbed water. […]
Quartz crystal microbalance with dissipation (QCM-D) is an extension to the QCM technique developed by Q-Sense® and can be used to determine the rigidity/softness and the viscoelastic properties of the adsorbed material. The QCM quartz crystal was coated with different rigid materials (e.g., metals, polymers, dielectrics) and the adsorption kinetics can be monitored on these materials in liquid environment. […]

[2] = AFM force between Z-Cat-Ben SAM on silica and a silica bead; format: physicochemical; conditions: SAM on silica from 5 mM
Excerpt: The pristine self-assemble of the Z-Cat-Ben molecules on silica surface exposed the aromatic residues to the air-water interface resulting in a low interfacial energy between a silica bead and the SAM surface as measured with the AFM technique (Wad˜0.07 mJ/m^2, see FIG. 47). This is unlike the strong adhesion of SAMs exposing catechol residues to the air water interface that bind to silica surface through hydrogen bonding interactions (Wad˜7.7 mJ/m^2).

[3] = Lap joint bending peel test
Protocol: Below are the detailed methods following in sequential order in time: • 1) The aqueous Z-Cat-C10 solution was prepared at 100 mg ml^−1 concentration (very turbid solution at room temperature) (FIG. 10A test-tube on the left). • 2) The solution was centrifuged at 3000 rpm (805×g) for 5 min to expedite the process of liquid-liquid phase separation (FIG. 10A test-tubes in the middle and the right). 3) The lower dense coacervate phase was collected in a syringe (FIG. 24A) and injected (spread, ˜10 μl) over a steel plate immersed in water i.e., artificial sea water, aqueous periodate solution, and DI water, respectively (FIG. 24B). • 4) Another steel plate glued onto the steel plate with coacervates on as a lap joint (cross-sectional area 2.54 cm×2.54 cm. • 5) The each lap joint was loaded (250 g) for 12 h of compressive setting (FIG. 24C). • 6) The lap joint bending peel test was conducted underwater for each lap joint prepared in artificial seawater, aqueous periodate solution, and DI water, respectively (FIGS. 24D-24F). • 7) The lap joint bending peel test was conducted dry ambient condition for the lap joint prepared in the periodate solution after 12 h drying in ambient condition Standard Three Point Bending Peel Test
The catecholic zwitterions were inspired by interfacial proteins (mfp-3 and -5) that function as adhesive primers, but not as bulk adhesives. To determine whether Z-Cat-C10 is limited to surface binding or develops measurable bulk cohesion (thickness […]), bulk rupture tests were done using a peeling-by-bending test to better mimic the role that interfacial proteins play in resisting plaque detachment as well as lap-shear bonding test. Lap joints were prepared by gluing two steel plates (SS304) immersed in water using the lower dense coacervate (˜10 μl) (FIGS. 24A-24H). The lap joint (cross-sectional area=2.54 cm×2.54 cm) prepared in artificial seawater or periodate solution, respectively, held a load up to 3 N underwater. […] After 12 h ambient drying, the joint prepared in 1 M periodate solution held much higher load, 11 N: Standard three point bending peel strength of the lap joint (cross-sectional area=2.54 cm×1.27 cm) was measured under ambient dry conditions after drying 12 h. […] Shear bonding strength of the lap joint (cross-sectional area=2.54 cm×2.54 cm) was also measured, 1.1 MPa (standard deviation=0.3, n=4)—similar to Dopa-functionalized polypeptide prepared under ambient dry conditions, 0.9 MPa. […] Nevertheless, the results present that the zwitterionic surfactants were capable of micro-gap-filling as well as nano-gap-filling shown in AFM and SFA, and indicate that they are more versatile than surface primers. The results also attest to the self-assembling ability of Z-Cat-C10 (FIGS. 13A-13C, double bilayer structure).

adsorbed mass ([1]; 5 mM, zero applied pressure) [ng/cm^2] | adsorbed layer thickness ([1]; Voigt model) [nm] | Structure (SMILES) | interfacial energy Wad between silica bead and SAM [2] [mJ/m^2] | load held by lap joint ([3]; dry ambient conditions (Z-Cat-C10 joint prepared in aqueous periodate)) [kg] | load held by lap joint ([3]; prepared in 1 M periodate, after 12 h ambient drying) [N] | load held by lap joint ([3]; prepared in DI water) [N] | load held by lap joint ([3]; underwater, prepared in artificial seawater or periodate solution)
85 | 1 | C[N+](C)(CCCc1ccccc1)CCOP(=O)([O-])OCCCc1ccc(O)c(O)c1 [Z-Cat-Ben] | ~0.07 |  |  |  | 
 |  | CN(C)CCOP(=O)(O)OCCCc1ccc(O)c(O)c1 [Z-Cat-C10] |  | ≤ 1.1 | 11 | 1 | up to 3 N
